From patent US8987267B2, “2-substituted-8-alkyl-7-OXO-7,8-dihydropyrido[2,3-D]pyrimidine-6-carbonitriles and uses thereof in treating proliferative disorders” (Temple University—of the Commonwealth System of Higher …, priority 2010, dated 2015)

How the values were obtained:
Assay in all cases: Kinase inhibition panel
Format in all cases: biochemical
Details in all cases: 10 μM ATP
[1] = molecular target: CDK3/cyclinE (Homo sapiens, UniProt Q00526)
Method: (§1) The compounds in Table 4 were tested for the ability to inhibit the kinase activity of the listed protein kinases.

[2] = molecular target: EphB1 (Homo sapiens, UniProt P54762)
Method: as §1

[3] = molecular target: ABL1 (Homo sapiens, UniProt P00519)
Method: as §1

[4] = molecular target: LCK (Homo sapiens, UniProt P06239)
Method: as §1

[5] = molecular target: LYNB (Homo sapiens, UniProt P07948)
Method: as §1

[6] = molecular target: FGFR3 (Homo sapiens, UniProt P22607)
Method: as §1

[7] = molecular target: CDK6/cyclinD1 (Homo sapiens, UniProt Q00534)
Method: as §1

[8] = molecular target: ABL2/ARG (Homo sapiens, UniProt P42684)
Method: as §1

[9] = molecular target: FLTINEGFRI (Homo sapiens, UniProt P17948)
Method: as §1

[10] = molecular target: RIPK2 (Homo sapiens, UniProt O43353)
Method: as §1

[11] = molecular target: SNARK/NUAK2 (Homo sapiens, UniProt Q9H093)
Method: as §1

[12] = molecular target: SIK2/SNF1LK2 (Homo sapiens, UniProt Q9H0K1)
Method: as §1

[13] = molecular target: TAOK2ITA01 (Homo sapiens, UniProt Q9UL54)
Method: as §1

[14] = molecular target: EPHA1 (Homo sapiens, UniProt P21709)
Method: as §1

[15] = molecular target: CDK9/cyclin K (Homo sapiens, UniProt P50750)
Method: as §1

[16] = molecular target: CDK4/Cyclin D1 (Homo sapiens, UniProt P11802)
Method: as §1

[17] = molecular target: LIMK1 (Homo sapiens, UniProt P53667)
Method: as §1

[18] = molecular target: LOK/STK10 (Homo sapiens, UniProt O94804)
Method: as §1

[19] = molecular target: CDK5/p35 (Homo sapiens, UniProt Q00535)
Method: as §1

[20] = molecular target: CDK2/cyclinE (Homo sapiens, UniProt P24941)
Method: as §1

CDK4/Cyclin D1, sequence (P11802 whole entry, species assumed): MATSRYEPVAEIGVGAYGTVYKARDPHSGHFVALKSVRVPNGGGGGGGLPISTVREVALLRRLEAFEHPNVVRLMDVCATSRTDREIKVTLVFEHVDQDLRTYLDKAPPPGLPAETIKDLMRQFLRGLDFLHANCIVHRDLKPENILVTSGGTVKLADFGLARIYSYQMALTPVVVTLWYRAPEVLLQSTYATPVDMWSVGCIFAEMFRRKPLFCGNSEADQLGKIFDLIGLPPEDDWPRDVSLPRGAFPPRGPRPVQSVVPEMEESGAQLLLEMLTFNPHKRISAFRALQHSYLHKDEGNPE
CDK4/Cyclin D1, sequence (P24385 whole entry partner, species assumed): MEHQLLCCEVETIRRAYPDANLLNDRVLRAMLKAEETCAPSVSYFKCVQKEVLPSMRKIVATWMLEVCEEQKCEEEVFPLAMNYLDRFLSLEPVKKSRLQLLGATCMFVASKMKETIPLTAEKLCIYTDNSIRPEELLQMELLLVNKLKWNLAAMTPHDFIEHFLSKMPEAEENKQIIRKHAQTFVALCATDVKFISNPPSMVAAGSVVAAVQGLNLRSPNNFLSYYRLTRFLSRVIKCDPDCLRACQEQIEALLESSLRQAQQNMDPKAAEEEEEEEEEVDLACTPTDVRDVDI
CDK5/p35, sequence (Q00535 whole entry, species assumed): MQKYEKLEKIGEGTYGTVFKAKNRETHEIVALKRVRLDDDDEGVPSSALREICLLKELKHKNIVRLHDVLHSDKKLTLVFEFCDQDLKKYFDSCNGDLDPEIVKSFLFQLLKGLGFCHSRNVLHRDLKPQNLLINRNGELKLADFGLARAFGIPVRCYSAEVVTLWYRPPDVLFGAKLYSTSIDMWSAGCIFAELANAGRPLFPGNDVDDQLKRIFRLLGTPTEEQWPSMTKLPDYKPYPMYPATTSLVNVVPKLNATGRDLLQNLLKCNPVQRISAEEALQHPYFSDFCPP
CDK5/p35, sequence (Q15078 whole entry partner, species assumed): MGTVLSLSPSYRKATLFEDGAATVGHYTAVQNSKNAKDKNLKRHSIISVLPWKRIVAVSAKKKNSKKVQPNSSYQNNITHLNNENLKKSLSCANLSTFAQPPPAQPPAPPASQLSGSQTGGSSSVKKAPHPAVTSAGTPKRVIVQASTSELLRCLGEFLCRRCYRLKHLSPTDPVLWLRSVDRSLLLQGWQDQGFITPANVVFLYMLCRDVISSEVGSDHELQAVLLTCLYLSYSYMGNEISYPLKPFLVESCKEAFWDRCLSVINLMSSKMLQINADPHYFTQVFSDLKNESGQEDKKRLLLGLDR
RIPK2, sequence (O43353 whole entry, species assumed): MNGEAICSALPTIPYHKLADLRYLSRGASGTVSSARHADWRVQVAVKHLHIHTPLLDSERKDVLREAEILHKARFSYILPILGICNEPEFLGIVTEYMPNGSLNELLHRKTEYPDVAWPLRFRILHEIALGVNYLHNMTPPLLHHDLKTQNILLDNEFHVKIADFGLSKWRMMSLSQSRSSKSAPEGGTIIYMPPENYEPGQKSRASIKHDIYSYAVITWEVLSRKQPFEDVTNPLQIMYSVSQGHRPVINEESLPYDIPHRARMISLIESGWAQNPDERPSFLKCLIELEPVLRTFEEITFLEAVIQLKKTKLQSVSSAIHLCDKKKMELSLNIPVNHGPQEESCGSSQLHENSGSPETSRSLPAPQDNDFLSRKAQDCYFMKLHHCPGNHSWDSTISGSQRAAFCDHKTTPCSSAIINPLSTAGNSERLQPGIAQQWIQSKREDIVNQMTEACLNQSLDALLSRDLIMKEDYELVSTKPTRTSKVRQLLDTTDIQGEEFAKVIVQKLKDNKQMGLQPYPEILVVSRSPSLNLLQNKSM
ABL1, sequence (P00519 whole entry, species assumed): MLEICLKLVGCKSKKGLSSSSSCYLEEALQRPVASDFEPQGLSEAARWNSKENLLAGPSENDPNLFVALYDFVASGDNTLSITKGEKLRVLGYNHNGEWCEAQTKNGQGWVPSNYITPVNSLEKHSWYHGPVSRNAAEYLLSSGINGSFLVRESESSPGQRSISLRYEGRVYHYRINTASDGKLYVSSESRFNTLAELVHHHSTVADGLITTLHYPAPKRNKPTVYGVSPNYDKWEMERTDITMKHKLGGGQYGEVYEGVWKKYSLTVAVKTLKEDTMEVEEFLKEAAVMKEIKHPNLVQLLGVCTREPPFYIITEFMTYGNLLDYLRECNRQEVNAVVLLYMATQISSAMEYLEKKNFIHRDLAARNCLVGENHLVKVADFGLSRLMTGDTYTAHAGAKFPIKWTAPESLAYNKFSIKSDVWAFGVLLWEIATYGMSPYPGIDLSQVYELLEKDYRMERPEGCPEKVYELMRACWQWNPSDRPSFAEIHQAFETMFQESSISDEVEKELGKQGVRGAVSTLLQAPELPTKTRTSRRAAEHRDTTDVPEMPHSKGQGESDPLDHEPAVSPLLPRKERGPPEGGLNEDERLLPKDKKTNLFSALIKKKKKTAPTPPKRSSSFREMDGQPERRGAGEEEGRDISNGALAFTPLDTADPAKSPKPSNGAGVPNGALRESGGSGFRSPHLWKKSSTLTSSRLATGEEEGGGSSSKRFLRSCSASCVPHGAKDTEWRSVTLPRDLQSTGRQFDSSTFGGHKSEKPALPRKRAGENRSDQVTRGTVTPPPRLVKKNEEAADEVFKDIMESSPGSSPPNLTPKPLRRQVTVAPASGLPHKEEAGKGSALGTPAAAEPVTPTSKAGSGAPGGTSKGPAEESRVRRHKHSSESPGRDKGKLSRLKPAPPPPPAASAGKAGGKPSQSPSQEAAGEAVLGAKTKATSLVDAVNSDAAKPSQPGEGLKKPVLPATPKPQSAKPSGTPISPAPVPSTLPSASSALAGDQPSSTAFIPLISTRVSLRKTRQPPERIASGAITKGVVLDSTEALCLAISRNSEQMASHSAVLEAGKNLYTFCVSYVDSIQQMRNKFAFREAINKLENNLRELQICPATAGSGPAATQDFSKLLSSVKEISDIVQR
EPHA1, sequence (P21709 26-976, species assumed): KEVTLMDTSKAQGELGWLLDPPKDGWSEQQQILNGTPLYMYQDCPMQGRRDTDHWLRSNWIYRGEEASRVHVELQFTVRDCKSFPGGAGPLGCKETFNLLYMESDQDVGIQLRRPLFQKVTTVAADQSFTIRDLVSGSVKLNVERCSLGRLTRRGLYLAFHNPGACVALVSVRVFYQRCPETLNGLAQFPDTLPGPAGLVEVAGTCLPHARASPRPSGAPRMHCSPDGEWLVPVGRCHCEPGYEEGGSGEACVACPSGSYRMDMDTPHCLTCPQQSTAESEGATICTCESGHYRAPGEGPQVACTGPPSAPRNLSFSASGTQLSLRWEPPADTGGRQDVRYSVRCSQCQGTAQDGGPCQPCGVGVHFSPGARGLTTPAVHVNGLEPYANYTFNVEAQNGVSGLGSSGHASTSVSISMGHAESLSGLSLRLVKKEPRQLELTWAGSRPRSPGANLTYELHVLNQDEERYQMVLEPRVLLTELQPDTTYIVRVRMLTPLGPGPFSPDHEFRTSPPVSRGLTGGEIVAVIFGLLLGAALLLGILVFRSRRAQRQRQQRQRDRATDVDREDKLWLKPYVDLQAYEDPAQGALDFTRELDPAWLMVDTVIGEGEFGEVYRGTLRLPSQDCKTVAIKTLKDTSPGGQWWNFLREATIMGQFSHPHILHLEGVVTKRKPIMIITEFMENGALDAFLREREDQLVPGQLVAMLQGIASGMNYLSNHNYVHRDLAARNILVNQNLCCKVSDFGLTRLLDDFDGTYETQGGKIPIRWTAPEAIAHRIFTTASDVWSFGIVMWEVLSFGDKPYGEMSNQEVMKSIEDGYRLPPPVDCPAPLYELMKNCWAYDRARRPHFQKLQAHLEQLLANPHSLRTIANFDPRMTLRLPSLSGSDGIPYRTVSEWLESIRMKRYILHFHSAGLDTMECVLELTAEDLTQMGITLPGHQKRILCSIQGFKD
LOK/STK10, sequence (O94804 whole entry): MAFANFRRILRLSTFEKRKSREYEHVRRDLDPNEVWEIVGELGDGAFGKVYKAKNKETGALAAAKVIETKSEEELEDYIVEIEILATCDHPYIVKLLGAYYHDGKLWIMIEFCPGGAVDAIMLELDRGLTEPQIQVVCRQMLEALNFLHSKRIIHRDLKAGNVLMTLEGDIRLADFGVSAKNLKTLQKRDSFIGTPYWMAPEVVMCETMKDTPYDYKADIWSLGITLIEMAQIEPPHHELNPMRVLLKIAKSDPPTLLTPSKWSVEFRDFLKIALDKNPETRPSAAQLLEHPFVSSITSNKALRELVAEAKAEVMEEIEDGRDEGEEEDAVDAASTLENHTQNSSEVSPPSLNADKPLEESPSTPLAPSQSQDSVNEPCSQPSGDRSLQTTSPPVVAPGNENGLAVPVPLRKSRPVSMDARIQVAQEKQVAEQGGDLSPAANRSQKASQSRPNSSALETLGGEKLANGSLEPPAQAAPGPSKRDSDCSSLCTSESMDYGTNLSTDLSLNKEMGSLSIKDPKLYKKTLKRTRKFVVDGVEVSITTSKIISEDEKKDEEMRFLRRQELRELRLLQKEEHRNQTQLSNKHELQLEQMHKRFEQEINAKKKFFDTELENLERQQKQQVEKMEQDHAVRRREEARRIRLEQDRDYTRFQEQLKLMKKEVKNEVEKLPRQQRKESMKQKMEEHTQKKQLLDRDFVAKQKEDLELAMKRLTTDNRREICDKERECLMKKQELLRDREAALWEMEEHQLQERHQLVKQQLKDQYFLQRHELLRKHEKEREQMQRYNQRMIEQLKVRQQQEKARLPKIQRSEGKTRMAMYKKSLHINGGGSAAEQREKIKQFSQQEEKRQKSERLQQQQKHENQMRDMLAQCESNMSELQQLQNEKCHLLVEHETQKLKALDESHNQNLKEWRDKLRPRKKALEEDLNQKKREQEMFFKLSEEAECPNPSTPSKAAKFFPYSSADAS

- IC50 [1]: 3.22 µM
- IC50 [2]: 0.0267 µM
- IC50 [3]: 0.0756 µM
- IC50 [4]: 0.0504 µM
- IC50 [5]: 6.65 µM
- IC50 [6]: 0.124 µM
- IC50 [7]: 0.0184 µM
- IC50 [8]: 0.0916 µM
- IC50 [9]: 0.0941 µM
- IC50 [10]: 0.0408 µM
- IC50 [11]: 0.0207 µM
- IC50 [12]: 0.0968 µM
- IC50 [13]: 0.0696 µM
- IC50 [14]: 0.0371 µM
- IC50 [15]: 0.0271 µM
- IC50 [16]: 0.004 µM
- IC50 [17]: 0.0708 µM
- IC50 [18]: 0.181 µM
- IC50 [19]: 0.181 µM
- IC50 [20]: 0.77 µM
SMILES: CN1CCN(c2ccc(Nc3ncc4cc(C#N)c(=O)n(C5CCCC5)c4n3)cc2)CC1 [Compound 12, 8-cyclopentyl-2-((4-(4-methylpiperazin-1-yl)phenyl)amino)-7-oxo-7,8-dihydropyrido[2,3-d]pyrimidine-6-carbonitrile]
